US9802899B2, “Heterocyclic compounds as pesticides” (BAYER CROPSCIENCE AG, priority 2012, dated 2017)

Columns and labels:
[1] = Determination of the log P values by HPLC (formic acid method); assay type: physicochemical; details: reversed-phase column (C 18), acidic range (pH 3.4), 55° C.
Procedure: 1) Description of Method for Determination of the Log P Values (Formic Acid Method)
Eluents for determination in the acidic range (pH 3.4):
Eluent A: acetonitrile+1 ml of formic acid/liter. Eluent B: water+0.9 ml of formic acid/liter.
The lambda max values were determined in the maxima of the chromatographic signals using the UV spectra from 200 nm to 400 nm.

Boophilus microplus = Boophilus microplus test (BOOPMI injection); assay type: in vivo; details: application rate 20 μg/animal; injection into the abdomen; after 7 days by laying of fertile eggs
Procedure: Boophilus microplus Test (BOOPMI Injection)
Solvent: dimethyl sulphoxide
To produce a suitable preparation of active compound, 10 mg of active compound are mixed with 0.5 ml of solvent, and the concentrate is diluted with solvent to the desired concentration.
The active compound solution is injected into the abdomen (Boophilus microplus), and the animals are transferred into dishes and stored in a climate-controlled room.
The activity is assessed after 7 days by laying of fertile eggs. Eggs whose fertility is not visible from the outside are stored in a climate-controlled cabinet until the larvae hatch after about 42 days. An efficacy of 100% means that none of the ticks has laid any fertile eggs; 0% means that all eggs are fertile.

## O=C(Nc1ccn(-c2ccccc2Br)n1)c1ncccc1Cl [Compound I-1-55]
[1]
  log P: 2.76
Boophilus microplus
  efficacy: 80%
